IC50 data for two compounds are collected here from patent publication US11833156B2, “Heterocyclic compounds as pad inhibitors” (JUBILANT EPIPAD LLC, priority 2017, dated 2023).

A value given as a limit tells only on which side of the number the result lay.

The target of test [1] is T1, PAD4 enzyme (Homo sapiens (Human), UniProt Q9UM07). Nature of the test: Ammonia Release Biochemical Assay (citrullination detected via ammonia release). The settings on record: PAD4 120 nM, substrate BAEE, 60-min preincubation, read-out: NH3 release. A digest of the protocol: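 PAD4 (diluted to 120 nM) was preincubated 60 min at room temperature with compound (1% DMSO final) in HEPES pH 7.4 with DTT and BSA, then reacted 60 min with 1.5 mM BAEE in Ca2+-containing buffer. Ammonia released was detected after EDTA stop with o-phthalaldehyde/DTT (90 min, fluorescence ex 405/em 460 nm), giving IC50.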
T1 sequence (Q9UM07 whole entry): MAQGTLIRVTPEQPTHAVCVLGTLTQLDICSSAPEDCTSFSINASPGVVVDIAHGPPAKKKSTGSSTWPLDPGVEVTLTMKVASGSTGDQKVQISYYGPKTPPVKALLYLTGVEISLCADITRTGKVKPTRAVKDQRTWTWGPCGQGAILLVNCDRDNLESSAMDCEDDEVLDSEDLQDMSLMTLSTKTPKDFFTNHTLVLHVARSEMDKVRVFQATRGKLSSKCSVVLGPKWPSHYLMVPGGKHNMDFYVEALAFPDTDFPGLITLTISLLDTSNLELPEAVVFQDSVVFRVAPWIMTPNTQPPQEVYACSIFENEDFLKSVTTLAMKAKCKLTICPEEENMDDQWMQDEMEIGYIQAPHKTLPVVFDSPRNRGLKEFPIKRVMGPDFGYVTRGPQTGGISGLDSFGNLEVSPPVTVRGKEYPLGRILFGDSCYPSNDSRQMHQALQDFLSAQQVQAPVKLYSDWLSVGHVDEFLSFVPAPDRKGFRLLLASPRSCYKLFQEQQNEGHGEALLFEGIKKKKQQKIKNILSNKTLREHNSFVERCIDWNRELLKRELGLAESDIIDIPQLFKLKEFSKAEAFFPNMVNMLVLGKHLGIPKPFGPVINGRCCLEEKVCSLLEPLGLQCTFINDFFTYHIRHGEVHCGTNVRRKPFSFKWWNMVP

The target in test [2] is T1, PAD4 enzyme. The test can be described thus: FP Binding Assay. As to conditions: PAD4 1 uM, 10 nM fluorescein labelled probe JPAD-00085. Here is the method: Binding of compounds with PAD4 enzyme was detected by FP assay. PAD4 enzyme was diluted to 1 uM in assay buffer (100 mM HEPES, 50 mM NaCl, 1 mM DTT, 5% Glycerol and 1 mM CHAPS) and added to wells containing various concentration of compounds or DMSO vehicle (1%) in a 384 well black plate. 10 nM of fluorescein labelled probe (JPAD-00085) was added to the plate. Assay plate was incubated for 60 minutes at room temperature before measuring FP reading at FP module (λex 485/λem 535 nm) on Pherastar. IC50 was calculated using XL-fit software model 205. (Ref: Nat Chem Biol. 2015 March; 11(3):189-91).

For `N[C@@H]1CCCN(C(=O)c2cc3c4c(c2)nc(-c2cc5ccccc5n2Cc2ccc(Cl)cc2)n4CCO3)C1` [Example 13, (R)-(3-aminopiperidin-1-yl)(2-(1-(4-chlorobenzyl)-1H-indol-2-yl)-3,4-dihydro-5-oxa-1,2a-diazaacenaphthylene-7-yl)methanone], the IC50 at PAD4 enzyme [1] is at most 1 µM; at PAD4 enzyme [2] it was 1 to 10 µM.
The corresponding values for `N[C@@H]1CCCN(C(=O)c2cc3c4c(c2)nc(-c2cc5cc(F)ccc5n2CC2CC2)n4CCO3)C1` [Example 9, (R)-(3-aminopiperidin-1-yl)(2-(1-(cyclopropylmethyl)-5-fluoro-1H-indol-2-yl)-3,4-dihydro-5-oxa-1,2a-diazaacenaphthylen-7-yl)methanone] are at most 1 µM and at most 1 µM.
